Experiments:
[1] = biological target: bafilomycin-sensitive ATPase of chicken osteoclast; assay: Inhibition of bafilomycin-sensitive ATPase activity in purified chicken osteoclast membrane vesicles (Pi release); assay type: biochemical; conditions: membrane source not given, chicken osteoclast assumed
Experimental: Preparation of Crude Bone Microsomes from Calcium-starved Egg-laying Hens
Vesicles were prepared from medullar bone obtained from tibiae and femurs or egg-laying hens which were calcium-starved for at least 15 days. Briefly, bone fragments were scraped with a 24 scalpel blade, suspended in 40 ml of isolation medium (0.2 M sucrose, 50 mM KCl, 10 mM Hepes, 1 mM EGTA, 2 mM dithiotheitrol, pH 7.4) and filtered through a 100 μm pore size nylon mesh. The whole procedure was performed at 4° C. After homogenisation in a potter (20 strokes) in 40 ml of isolation medium an initial centrifugation (6,500×gmax×20 min) was performed to remove mitochondria and lysosomes. The supernatant was centrifuged at 100,000×gmax for 1 hr and the pellet was collected in 1 ml of isolation medium, divided into 200 μl aliquots, immediately frozen in liquid nitrogen and stored at −80° C. The protein content was determined using a Biorad colourimetric kit according to Bradford [M. Bradford, Anal. Biochem., 72, 248 (1976)]. For the proton transport assay, 5-10 μl of membranes were used.
Purification of osteoclast membranes. 1 ml of crude microsomal vesicles prepared above were applied (about 0.2 ml per tube ) on the top of a sucrose step-gradient consisting of 3.5 ml of 15%, 30% and 45% (w/w) sucrose in isolation medium and centrifuged at 280,000 gmax for 2 h (SW 41 Ti rotor). After centrifugation the 30-45% sucrose interfaces were collected, diluted approx. 20-fold in isolation medium and pelletted at 100,000 gmax for 1 hour (SW 28 rotor). […]
Inhibition of bafilomycin-sensitive ATPase activity was assessed in purified membrane vesicles by measuring the release of inorganic phosphate (Pi) during 30 min of incubation at 37° C. in a 96-well plate either in the presence or in the absence of bafilomycin A1. […] Absorbance at 650 nm was measured after 2 min using a microplate reader. Results are expressed as nmol (Pi)×mg protein^−1×min^−1 and, for each experiment, represent the mean±sem of triplicates.

[2] = biological target: bafilomycin-sensitive ATPase in human kidney membranes; assay: Inhibition of bafilomycin-sensitive ATPase in human kidney membranes; assay type: biochemical; conditions: read-out: IC50 h kidney
Experimental: Human kidney membranes were obtained from the cortex of a human kidney, frozen immediately after surgery, according to the method reported in the literature for bovine kidney (S. Gluck, J Biol. Chem., 265, 21957 (1990)).
Inhibition of bafilomycin-sensitive ATPase activity was assessed in purified membrane vesicles by measuring the release of inorganic phosphate (Pi) during 30 min of incubation at 37° C. in a 96-well plate either in the presence or in the absence of bafilomycin A1. The reaction medium contained 1 mM ATP, 10 mM HEPES-Tris pH 8, 50 mM KCl, 5 uM valinomycin, 5 uM nigericin, 1 mM CDTA-Tris,100 uM ammonium molybdate, 0.2 M sucrose and membranes (20 ug protein/ml). The reaction was initiated by MgSO4 (8-arm pipette) and stopped, after 30 min, by addition of 4 volumes of the malachite green reagent (96-arm pipette) prepared according to Chan [Anal. Biochem. 157, 375 (1986)]. Absorbance at 650 nm was measured after 2 min using a microplate reader. Results are expressed as nmol (Pi)×mg protein^−1×min^−1 and, for each experiment, represent the mean±sem of triplicates.

SMILES | IC50 [1] [µM] | IC50 [2] [µM] | melting point [°C]
CN1C(C)(C)CC(NC(=O)c2ccc(-c3cc4cc(Cl)c(Cl)cc4[nH]3)cc2)CC1(C)C [Example 1, 4-(5,6-Dichloro-1H-indol-2-yl)-N-(1,2,2,6,6-pentamethypiperidin-4-yl)benzamide] | 0.35 | 1.25 | –
COc1cc(C(=O)NC2CC(C)(C)N(C)C(C)(C)C2)ccc1-c1cc2cc(Cl)c(Cl)cc2[nH]1 [Example 2, 4-(5,6-Dichloro-1H-indol-2-yl)-3-methoxy-N-(1,2,2,6,6-pentamethylpiperidin-4yl)-benzamide] | 0.096 | 0.2 | –
COc1cc(-c2cc3cc(Cl)c(Cl)cc3[nH]2)ccc1C(=O)NC1CC(C)(C)N(C)C(C)(C)C1 [Example 3, 4-(5,6-Dichloro-1H-indol-2-yl)-2-methoxy-N-(1,2,2,6,6-pentamethylpiperidin-4-yl)-benzamide] | 1.3 | – | –
CN(C)CCCNC(=O)c1cccc(-c2cc3cc(Cl)c(Cl)cc3[nH]2)c1 [Example 5, 3-(5,6-Dichloro-1H-indol-2-yl)-N-(3-dimethylaminopropyl)benzamide] | – | – | 204
